Data taken from ChEMBL document CHEMBL1132788, “Analogues and derivatives of ciproxifan, a novel prototype for generating potent histamine H3-receptor antagonists” (Bioorg Med Chem Lett, 2000).

What was measured:
[1] = biological target: Histamine H3 receptor (Mus musculus) (UniProt P58406); assay: In vivo Histamine H3 receptor antagonism, dose required to increase in N-t-methylhistamine levels in Swiss mice brains 90 min after p.o. administration; type: functional, organism-based; conditions: Brain
Histamine H3 receptor = Histamine H3 receptor (Rattus norvegicus, UniProt Q9QYN8); assay: In vitro inhibitory activity against Histamine H3 receptor for K+ evoked depolarization-induced release of [3H]histamine from synaptosomes of rat cerebral cortex; type: subcellular, Brain
Sequence of Histamine H3 receptor (Q9QYN8 whole entry): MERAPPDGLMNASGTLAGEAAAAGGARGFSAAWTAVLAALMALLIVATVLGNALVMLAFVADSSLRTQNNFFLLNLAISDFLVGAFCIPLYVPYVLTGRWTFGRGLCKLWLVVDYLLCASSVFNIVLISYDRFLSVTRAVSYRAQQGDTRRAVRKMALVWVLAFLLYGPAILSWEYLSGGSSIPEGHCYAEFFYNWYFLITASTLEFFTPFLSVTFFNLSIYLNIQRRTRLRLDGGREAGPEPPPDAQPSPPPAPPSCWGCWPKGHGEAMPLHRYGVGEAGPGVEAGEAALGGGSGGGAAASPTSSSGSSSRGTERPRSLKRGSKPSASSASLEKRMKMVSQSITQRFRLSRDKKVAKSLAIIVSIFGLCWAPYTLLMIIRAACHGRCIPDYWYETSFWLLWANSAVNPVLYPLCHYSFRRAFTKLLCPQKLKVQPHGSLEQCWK

Sequence of Histamine H3 receptor (Mus musculus) (P58406 whole entry): as the sequence (Q9QYN8 whole entry) above, with T15A, A286T, A290G, R387H, I389V counted along it

SMILES | ED50 [1] [mg/kg] | Ki (Histamine H3 receptor) [nM]
CC(C)(C)CCC#C[C@@H]1C[C@H]1c1c[nH]cn1 | 0.12 | 
OC(c1ccc(OCCCc2c[nH]cn2)cc1)C1CC1 (stereo not given) | 0.18 | 0.58
O/N=C(/c1ccc(OCCCc2c[nH]cn2)cc1)C1CC1 | 0.21 | 
O=C(CCCO)c1ccc(OCCCc2cnc[nH]2)cc1 |  | 30
CCCCc1ccc(OCCCc2cnc[nH]2)cc1 |  | 60
OCCCC1(c2ccc(OCCCc3c[nH]cn3)cc2)OCCO1 | > 10 | 40
O=C(c1ccc(OCc2c[nH]cn2)cc1)C1CC1 | 2.8 | > 500
O=C(CCCO)c1ccc(OCCCc2c[nH]cn2)cc1 | > 10 | 
ClCC/C=C/c1ccc(OCCCc2c[nH]cn2)cc1 | 0.72 | 

Now from value to compound:

ED50 [1] [mg/kg] | Ki (Histamine H3 receptor) [nM] | SMILES
> 10 |  | c1nc(CCCOc2ccc(CC3CC3)cc2)c[nH]1
0.96 |  | CCCCc1ccc(OCCCc2c[nH]cn2)cc1
> 10 |  | O=C(CCCN1CCCC1)c1ccc(OCCCc2c[nH]cn2)cc1
0.21 | 2.1 | O=C(c1ccc(OCCc2c[nH]cn2)cc1)C1CC1
> 10 |  | O=C(c1ccc(OCCCCc2c[nH]cn2)cc1)C1CC1
0.14 |  | O=C(c1ccc(OCCCc2c[nH]cn2)cc1)C1CC1
 | 113 | O=C(c1ccc(OCCCCc2cnc[nH]2)cc1)C1CC1
